Results reported in patent US9943482B2, “Milk-derived microvesicle compositions and related methods” (UNIVERSITY OF LOUISVILLE RESEARCH FOUNDATION, INC., priority 2013, dated 2018).
Like-named read-outs stand apart in the source and are kept apart here.

Legend:
[1] = In vitro release from loaded exosomes, dialysis tubes against buffer with Tween-80 at 37° C.; format: physicochemical
Description: (§1) Several procedures were developed to load therapeutic agents onto the milk- or colostrum-derived exosomes. […] In one preferred embodiment, incubation of exosomes in PBS with test agents in the presence of 10% ethanol or 10% ethanol:acetonitrile (1:1) allowed for increased loading of therapeutic agents into the exosomes. The agents utilized in those studies included curcumin, withaferin A, demethoxycurcumin, delphinidin, cyanidin, a native mixture of (five) anthocyanidins from bilberry, punicalagin, and tanshinone II. The chemotherapeutic agents doxorubicin, paclitaxel, and docetaxel were also loaded in the exosomes. In this regard, it was observed that the exosomes accepted both hydrophobic (paclitaxel, docetaxel, curcumin, withaferin A, tanshinone II) and hydrophilic agents (berry anthocyanidins, punicalagin) with a loading efficiency of 4% to 65% with respect to exosomal proteins, as determined by measurement of the drug and exosomal protein contents (Tables IV and V). Sucrose density gradient ultracentrifugation confirmed the presence of drugs embedded in the exosomes (FIGS. 5-8). When tested for in vitro release using dialysis tubes against buffer containing the surfactant, Tween-80 [47] at 37° C., PAC and WFA were released time-dependently—20%, 43% and 70% PAC in 2, 6 and 19 h, and 12%, 40% and 58% WFA in 1, 4, and 24 h, respectively (FIGS. 10, 11A, and 11B).

[2] = Loading of therapeutic agents into bovine milk-derived exosomes; format: physicochemical
Description: as §1

[3] = 3 mg chemo. drug, 30 mg exosomal protein (Sample A)
[4] = 6 mg chemo. drug, 30 mg exosomal protein (Sample B)
[5] = 9 mg chemo. drug, 30 mg exosomal protein (Sample C)
[6] = 12 mg chemo. drug, 30 mg exosomal protein (Sample D)
[7] = 18 mg chemo. drug, 30 mg exosomal protein (Sample E)

CC(=O)O[C@@]12CO[C@@H]1C[C@H](O)[C@@]1(C)C(=O)[C@H](O)C3=C(C)[C@@H](OC(=O)[C@H](O)[C@@H](NC(=O)OC(C)(C)C)c4ccccc4)C[C@@](O)([C@@H](OC(=O)c4ccccc4)[C@H]21)C3(C)C [Docetaxel, docetaxel]
stability of agent extracted from residual material of the release study [1]: stable during the workup | % Drug load [2, 3]: 6.0% | % Drug load [2, 4]: 17.7% | % Drug load [2, 5]: 34.5% | % Drug load [2, 6]: 49.1% | % Drug load [2, 7]: 55.1%

CC(=O)O[C@H]1C(=O)[C@@]2(C)[C@H]([C@H](OC(=O)c3ccccc3)[C@]3(O)C[C@H](OC(=O)[C@H](O)[C@@H](NC(=O)c4ccccc4)c4ccccc4)C(C)=C1C3(C)C)[C@]1(OC(C)=O)CO[C@@H]1C[C@@H]2O [Paclitaxel, paclitaxel]
stability of agent extracted from residual material of the release study [1]: stable during the workup | in vitro release from exosomes ([1]; 2 h): 20% | in vitro release from exosomes ([1]; 6 h): 43% | in vitro release from exosomes ([1]; 19 h): 70% | % Drug load [2, 3]: 15.7% | % Drug load [2, 4]: 20.3% | % Drug load [2, 5]: 14.9% | % Drug load [2, 6]: 36.6% | % Drug load [2, 7]: 64.6%

CC1=C(CO)C(=O)O[C@@H]([C@@H](C)[C@H]2CC[C@H]3[C@@H]4C[C@H]5O[C@]56[C@@H](O)C=CC(=O)[C@]6(C)[C@H]4CC[C@]23C)C1 [Withaferin A, withaferin A]
in vitro release from exosomes ([1]; 1 h): 12% | in vitro release from exosomes ([1]; 4 h): 40% | in vitro release from exosomes ([1]; 24 h): 58% | stability of agent extracted from residual material of the release study ([1]; HPLC or UV spectral analysis): stable during the workup | % Drug load ([2]; 5 mg agent, 50 mg exosomal protein (Sample A)): 3.8% | % Drug load ([2]; 10 mg agent, 50 mg exosomal protein (Sample B)): 8.6% | % Drug load ([2]; 20 mg agent, 50 mg exosomal protein (Sample C)): 31.4% | % Drug load ([2]; 25 mg agent, 50 mg exosomal protein (Sample D)): 44.8%
